{
  "source": "patent US9109041B2",
  "about": "“Analog compounds of analgesic peptides derived from the venom of crotalus durissus terrificus snakes, their uses, compositions, methods of preparation and purification” (priority 2004, dated 2015)",
  "key": {"[1]": {"test_system": "carrageenin-induced hyperalgesia", "assay": "rat paw pressure test, carrageenin-induced hyperalgesia", "type": "in vivo", "experimental": "The antinociceptive effect of the synthetic peptide was evaluated in the inflammatory hyperalgesia induced by carrageenin. […] Saline, administered by the same route was used as control.\nAs determined in the PGE2 model, the participation of opioid receptors in the antinociceptive effect of the peptide SEQ ID NO: 2 in the carrageenin-induced hyperalgesia (Table 10) was investigated. Therefore, the animals were treated with CTOP, a specific μ receptor antagonist (20 μg/paw), nor-BNI, a specific κ receptor antagonist (50 μg/paw) or with ICI 174.864, a specific δ receptor antagonist (10 μg/paw), injected by i.pl. route concomitantly to carrageenin. Peptide was administered in the dose of 1 μg/kg, orally, immediately before carrageenin."}, "[2]": {"test_system": "allodynia induced by constriction of the sciatic nerve", "assay": "allodynia induced by chronic constriction of the sciatic nerve (von Frey hairs)", "type": "in vivo, rat", "conditions": "for paw withdrawal threshold (allodynia), BM: before surgery; for paw withdrawal threshold (allodynia), FM 1 h: day 14, 1 h after peptide; for paw withdrawal threshold (allodynia), FM 3 h: day 14, 3 h after peptide; for paw withdrawal threshold (allodynia), FM 24 h: day 14, 24 h after peptide; for paw withdrawal threshold (allodynia), FM 48 h: day 14, 48 h after peptide; for paw withdrawal threshold (allodynia), FM 72 h: day 14, 72 h after peptide; for paw withdrawal threshold (allodynia), FM 96 h: day 14, 96 h after peptide; for paw withdrawal threshold (allodynia), IM: day 14 after surgery, before peptide", "experimental": "For the induction of neuropathic pain, surgery was performed in the sciatic nerve, in accordance with the method described by Bennett, G. J and Xie, Y. K. (Pain, 33:87-107, 1988). The animals were anesthetized with halothane. The sciatic nerve was exposed in the middle region of the thigh, moving away the femoral biceps muscle. Close to the trifurcation of the sciatic nerve, 7 mm of distance from the trifurcation, 4 loose ligations were performed (chromed catgut 4-0) around it, distant from each other in approximately 1 mm. The bindings were performed along the nerve, up to 4-5 mm from the initial point. The incision was sutured in layers, using silk suture thread number 4-0.\nAllodynia was evaluated for quantitative testing, in response to tactile stimulus applied to the paws of the rat, according to the method described by Chaplan el al. (1994), modified. In this test, the rats were placed, individually, in plastic cages, with meshed wire at the bottom, to allow access to the paws of these animals. Briefly, a logarithmic series of 10 calibrated Semmes-Weinstein monofilaments (von Frey hairs, Aesthesiometer Semmer-Weinstein, Stoelting Co., E.U.A) was applied to the right hind paw to determine the stimulus intensity threshold stiffness required to elicit a paw withdrawal response. Log stiffness of the hairs is determined by log 10 (mg×10) having the following values (the value in grams is between parenthesis): 3.61 (0.407 g); 3.84 (0.692 g); 4.08 (1.202 g); 4.17 (1.479 g); 4.31 (2.041 g); 4.56 (3.630 g); 4.74 (5.495 g); 4.93 (8.511 g); 5.07 (11.749 g) and 5.18 (15.136 g). It is important to point out that the filaments with weight greater than 15.136 g were not employed in the studies of allodynia.\nThe filaments were applied, one by one, perpendicularly, under the plantar area of both hind paws and maintained for a period of 8 seconds. The filament capable of eliciting the withdrawal of the paw, two consecutive times, was considered as the force in grams necessary to elicit the response (100% of response). In the absence of a response to the greater stimulus (15.135 g), this filament was considered as cut value.\nThe behavioral responses were used to calculate the 50% paw withdrawal threshold (absolute threshold), by fitting a gaussian integral psychometric function, using a maximum-likelihood fitting method. This fitting method allows parametric analyses.\nThe period of the application of the test and the treatments were the same as those used for determination of hyperalgesia (Table 12).\nThe results were analyzed by comparing the means of the basal and initial measurements or, when determined, by comparing the means obtained in the different experimental groups.\nFor this purpose, the animals were treated with CTOP, a specific μ receptor antagonist (20 μg/paw), nor-BNI, a specific κ receptor antagonist (50 μg/paw) or with ICI 174,864, a specific δ receptor antagonist (10 μg/paw). The antagonists were injected, by intraplantar route. The peptide was administered in the dose of 5 μg/kg, orally, immediately before the injection of the opioid antagonists.\nThe results were analyzed comparing the mean values of the basal and initial measurements, or of the initial and final measurements or, when determined, by comparing the mean values obtained in the different experimental groups (Tables 15 and 16)."}},
  "data": [
    {"substance": "Xaa-Phe-Ser-Pro-Glu-Asn-Cys-Gln-Gly-Glu-Ser-Gln-Pro-Cys [SEQ ID NO: 2]", "values": [
      {"measurement": "pain threshold, FM (g) ± S.E.M", "setting": "[1]; 1 μg/kg p.o. + CTOP 20 μg/paw i.pl. with carrageenin, after carrageenin", "value": "126 ± 2.92", "unit": "g"},
      {"measurement": "pain threshold, IM (g) ± S.E.M.", "setting": "[1]; 1 μg/kg p.o. + CTOP 20 μg/paw i.pl., before carrageenin", "value": "76 ± 1.87", "unit": "g"},
      {"measurement": "pain threshold, FM (g) ± S.E.M", "setting": "[1]; 1 μg/kg p.o. + ICI174,864 10 μg/paw i.pl. with carrageenin, after carrageenin", "value": "128 ± 2.00", "unit": "g"},
      {"measurement": "pain threshold, IM (g) ± S.E.M.", "setting": "[1]; 1 μg/kg p.o. + ICI174,864 10 μg/paw i.pl., before carrageenin", "value": "77 ± 1.22", "unit": "g"},
      {"measurement": "pain threshold, FM (g) ± S.E.M", "setting": "[1]; 1 μg/kg p.o. + nor-BNI 50 μg/paw i.pl. with carrageenin, after carrageenin", "value": "56 ± 1.00", "unit": "g"},
      {"measurement": "pain threshold, IM (g) ± S.E.M.", "setting": "[1]; 1 μg/kg p.o. + nor-BNI 50 μg/paw i.pl., before carrageenin", "value": "78 ± 2.00", "unit": "g"},
      {"measurement": "pain threshold, FM (g) ± S.E.M", "setting": "[1]; 1 μg/kg p.o., 3 h after carrageenin 200 μg/paw (Table 9)", "value": "116 ± 1.87", "unit": "g"},
      {"measurement": "pain threshold, FM (g) ± S.E.M", "setting": "[1]; 1 μg/kg p.o., after carrageenin (Table 10)", "value": "129 ± 1.87", "unit": "g"},
      {"measurement": "pain threshold, IM (g) ± S.E.M.", "setting": "[1]; 1 μg/kg p.o., before carrageenin (Table 9)", "value": "77 ± 2.00", "unit": "g"},
      {"measurement": "pain threshold, IM (g) ± S.E.M.", "setting": "[1]; 1 μg/kg p.o., before carrageenin (Table 10)", "value": "77 ± 1.22", "unit": "g"},
      {"measurement": "opioid receptor antagonist interfering with the antinociceptive effect", "setting": "[1]; peptide 1 μg/kg p.o., mu, kappa, delta antagonists i.pl.", "value": "only kappa opioid receptor antagonist was able to interfere"},
      {"measurement": "paw withdrawal threshold (allodynia), BM", "setting": "[2]; 0.0016 μg/kg p.o.", "value": "5.02 ± 0.03 log 10 (mg × 10)"},
      {"measurement": "paw withdrawal threshold (allodynia), FM 1 h", "setting": "[2]; 0.0016 μg/kg p.o.", "value": "4.22 ± 0.00 log 10 (mg × 10)"},
      {"measurement": "paw withdrawal threshold (allodynia), FM 3 h", "setting": "[2]; 0.0016 μg/kg p.o.", "value": "4.22 ± 0.00 log 10 (mg × 10)"},
      {"measurement": "paw withdrawal threshold (allodynia), FM 24 h", "setting": "[2]; 0.0016 μg/kg p.o.", "value": "4.22 ± 0.00 log 10 (mg × 10)"},
      {"measurement": "paw withdrawal threshold (allodynia), FM 48 h", "setting": "[2]; 0.0016 μg/kg p.o.", "value": "4.22 ± 0.00 log 10 (mg × 10)"},
      {"measurement": "paw withdrawal threshold (allodynia), FM 72 h", "setting": "[2]; 0.0016 μg/kg p.o.", "value": "4.22 ± 0.00 log 10 (mg × 10)"},
      {"measurement": "paw withdrawal threshold (allodynia), FM 96 h", "setting": "[2]; 0.0016 μg/kg p.o.", "value": "4.22 ± 0.00 log 10 (mg × 10)"},
      {"measurement": "paw withdrawal threshold (allodynia), IM", "setting": "[2]; 0.0016 μg/kg p.o.", "value": "4.22 ± 0.00 log 10 (mg × 10)"},
      {"measurement": "paw withdrawal threshold (allodynia), BM", "setting": "[2]; 0.008 μg/kg p.o.", "value": "4.99 ± 0.02 log 10 (mg × 10)"},
      {"measurement": "paw withdrawal threshold (allodynia), FM 1 h", "setting": "[2]; 0.008 μg/kg p.o.", "value": "4.22 ± 0.00 log 10 (mg × 10)"},
      {"measurement": "paw withdrawal threshold (allodynia), FM 3 h", "setting": "[2]; 0.008 μg/kg p.o.", "value": "4.22 ± 0.00 log 10 (mg × 10)"},
      {"measurement": "paw withdrawal threshold (allodynia), FM 24 h", "setting": "[2]; 0.008 μg/kg p.o.", "value": "4.22 ± 0.00 log 10 (mg × 10)"},
      {"measurement": "paw withdrawal threshold (allodynia), FM 48 h", "setting": "[2]; 0.008 μg/kg p.o.", "value": "4.22 ± 0.00 log 10 (mg × 10)"},
      {"measurement": "paw withdrawal threshold (allodynia), FM 72 h", "setting": "[2]; 0.008 μg/kg p.o.", "value": "4.22 ± 0.00 log 10 (mg × 10)"},
      {"measurement": "paw withdrawal threshold (allodynia), FM 96 h", "setting": "[2]; 0.008 μg/kg p.o.", "value": "4.22 ± 0.00 log 10 (mg × 10)"},
      {"measurement": "paw withdrawal threshold (allodynia), IM", "setting": "[2]; 0.008 μg/kg p.o.", "value": "4.22 ± 0.00 log 10 (mg × 10)"},
      {"measurement": "paw withdrawal threshold (allodynia), BM", "setting": "[2]; 0.04 μg/kg p.o.", "value": "4.97 ± 0.99 log 10 (mg × 10)"},
      {"measurement": "paw withdrawal threshold (allodynia), FM 1 h", "setting": "[2]; 0.04 μg/kg p.o.", "value": "4.22 ± 0.00 log 10 (mg × 10)"},
      {"measurement": "paw withdrawal threshold (allodynia), FM 3 h", "setting": "[2]; 0.04 μg/kg p.o.", "value": "4.22 ± 0.00 log 10 (mg × 10)"},
      {"measurement": "paw withdrawal threshold (allodynia), FM 24 h", "setting": "[2]; 0.04 μg/kg p.o.", "value": "4.22 ± 0.00 log 10 (mg × 10)"},
      {"measurement": "paw withdrawal threshold (allodynia), FM 48 h", "setting": "[2]; 0.04 μg/kg p.o.", "value": "4.26 ± 0.04 log 10 (mg × 10)"},
      {"measurement": "paw withdrawal threshold (allodynia), FM 72 h", "setting": "[2]; 0.04 μg/kg p.o.", "value": "4.22 ± 0.00 log 10 (mg × 10)"},
      {"measurement": "paw withdrawal threshold (allodynia), FM 96 h", "setting": "[2]; 0.04 μg/kg p.o.", "value": "4.22 ± 0.00 log 10 (mg × 10)"},
      {"measurement": "paw withdrawal threshold (allodynia), IM", "setting": "[2]; 0.04 μg/kg p.o.", "value": "4.22 ± 0.00 log 10 (mg × 10)"},
      {"measurement": "paw withdrawal threshold (allodynia), BM", "setting": "[2]; 0.2 μg/kg p.o.", "value": "5.03 ± 0.02 log 10 (mg × 10)"}
    ]}
  ]
}
